Laboratory results as given in patent US8674103B2, “Lyotropic liquid crystal systems based on aromatic tetracarboxylic bisbenzoimidazole derivatives and methods for making” (Nitto Denko Corporation, priority 2009, dated 2014).

Assay: Measurement of dichroic ratios of coated films by polarized absorbance spectra
Assay type: physicochemical
Experimental: Gardner Co. Inc.) at a linear velocity of 25 mm/s. The resulting film thickness was approximately 0.2 μm. The process was conducted at room temperature (˜20° C.) and relative humidity of 65% after the film was dried under the same condition. […] The dichroic ratio […] was equal to about 23 at about 500 nm. […] Gardner Co. Inc.) at a linear velocity of 25 mm/s. The resulting film thickness was approximately 200 nm. The process was conducted at room temperature (˜20° C.) and relative humidity of 65% after the film was dried under the same condition. The film was characterized by absorbance spectra measured on a spectrophotometer in a wavelength range from 380 to 780 nm using a light beam polarized along the direction of the film application (Apar) and the direction perpendicular to that (Aper).

SMILES: O=C(NCCOCCOCCCS(=O)(=O)O)c1ccc2c(c1)nc1c3ccc4c5ccc6c7c(ccc(c8ccc(c(=O)n21)c3c84)c57)c(=O)n1c2cc(C(=O)NCCOCCOCCCS(=O)(=O)O)ccc2nc61 [Compound 1]
- dichroic ratio Kd=log(Apar)/log(Aper) (Sample 1: 12 wt % solution titrated with triethylamine to pH 7, film approx. 0.2 μm, at about 500 nm): about 23
- λmax (Table 1, LLC chromophores): 500 nm
- Dichroic ratio (Table 1, at λmax): 23

SMILES: O=C(NCCOCCS(=O)(=O)O)c1ccc2c(c1)nc1c3ccc4c5ccc6c7c(ccc(c8ccc(c(=O)n21)c3c84)c57)c(=O)n1c2cc(C(=O)NCCOCCS(=O)(=O)O)ccc2nc61 [Compound 2]
- dichroic ratio (Kd) (Sample 2: 8 wt % solution titrated with LiOH to pH 7, film approx. 0.2, at about 500 nm): about 11

SMILES: O=C(NCCN(CCCS(=O)(=O)O)CCCS(=O)(=O)O)c1ccc2c(c1)nc1c3ccc4c5ccc6c7c(ccc(c8ccc(c(=O)n21)c3c84)c57)c(=O)n1c2cc(C(=O)NCCN(CCCS(=O)(=O)O)CCCS(=O)(=O)O)ccc2nc61 [Compound 3]
- dichroic ratio (Kd) (Sample 3: 15 wt % solution titrated with LiOH to pH 7, film approx. 0.2 μm, at about 500 nm): about 17

SMILES: O=C(NCCS(=O)(=O)[O-])c1ccc2nc3c4ccc5c(=O)n6c7cc(C(=O)NCCS(=O)(=O)[O-])ccc7nc6c6ccc(c(=O)n3c2c1)c4c56.[K+].[K+] [Compound 7]
- dichroic ratio (Kd) (Sample 6: 8 wt % solution titrated with KOH to pH 7, film approx. 0.2, at about 450 nm): about 8

SMILES: O=C(NCCCS(=O)(=O)[O-])c1ccc2nc3n(c2c1)Cc1ccc2c4c1c-3ccc4c(=O)n1c3cc(C(=O)NCCCS(=O)(=O)[O-])ccc3nc21.[Li+].[Li+] [Compound 8]
- dichroic ratio (Kd) (Sample 7: 8 wt % solution titrated with LiOH to pH 7, film approx. 0.2 μm, at about 450 nm): about 10

SMILES: O=C(NCCN1CCCC1)c1ccc2nc3c4ccc5c(=O)n6c7cc(C(=O)NCCN8CCCC8)ccc7nc6c6ccc(c(=O)n3c2c1)c4c56 [Compound 17d]
- dichroic ratio (Kd) (Sample 11: 25 wt % solution in water, film approx. 200 nm, at about 470 nm): about 4
